Converted amounts (≈) assume the structure as drawn. “And” between values parts separate entries of the source, which are not always exact repeats. Equal values may be shown once. Read-outs that look alike come from different tables or passages of the source.
Key:
[1] = system: M. tuberculosis H37Rv; assay: microbe, parasite or virus in culture; format: cell-based, Mycobacterium tuberculosis; settings: for MIC90 / IC90 / MIC: Mycobacterium tuberculosis, H37RV; for MIC90: read-out: MIC (MIC90); for IC90: read-out: TB-IC90_OD GEOM_MEAN; for MIC: read-out: MIC WT
[2] = system: Vero cells; settings: read-out: VERO IC50
Procedure: (§1) Compounds were solubilized in DMSO and assayed as a 10-point 3-fold serial dilution. Compounds were incubated with cells for 2 days at 37 °C, 5% CO2. CellTiter-Glo Reagent (Promega) was added and relative luminescent units (RLU) measured.

[3] = for CL mouse MEAN: microsomes
[4] = system: Vero cells; assay: cells; settings: Chlorocebus sabaeus, read-out: VERO IC50
Procedure: as §1

[5] = physchem
[6] = physchem; settings: aqueous with cosolvent or surfactant or cyclodextrin, kinetic from dmso stock
[7] = system: Madin Darby Canine Kidney (MDCK)
[8] = in vitro; settings: dog, MDCK-MDR1

Row | Compound | IC50 [2] | CL mouse MEAN ([3]; mouse) [mL/min/g] | MIC90 [1] [µM] | IC90 [1] [µM] | Cli mouse ([3]; female, CD1, mouse, pH 7.4) [mL.min^–1.g^–1] | IC50 [4] [µM] | chromatographic logD [5] | solubility kinetic [6] [µM] | other results
1 | 3-(2,2-Difluoro-2-phenylethoxy)-5-morpholinothiophene-2-carboxamide [Compound 50] | 95 µM | 19.1 |  |  |  |  |  |  | MIC (MIC90) [1]: >20 (2) μM
2 | 5-(3-Methylmorpholino)-3-phenethoxythiophene-2-carboxamide [Compound 31] | 77 µM and 79.4 µM | 11.19 |  |  |  |  |  |  | MIC (MIC90) [1]: >20 (2) μM
3 | 5-[2-Methoxyethyl(methyl)amino]-3-(2-phenylethoxy)thiophene-2-carboxamide [Compound 32] | > 100 µM | 28.42 |  |  |  |  |  |  | MIC (MIC90) [1]: >20 (3) μM
4 | O=C(NO)c1sc(N2CCOCC2)cc1OCCc1ccccc1 [Compound 16, 5-Morpholino-3-(2-phenylethoxy)thiophene-2-carbohydroxamic Acid] | 58 µM | 6.073 | 3.5 (≈ 1.22 µg/mL) | 3.32 | 6 | 58 |  |  | 
5 | CNC(=O)c1sc(N2CCOCC2)cc1OCCc1ccccc1 [Compound 21, N-Methyl-5-morpholino-3-(2-phenylethoxy)thiophene-2-carboxamide] | 72.4 µM | 35.49 | 0.12 (≈ 0.0416 µg/mL) | 0.133 | 36 | 91 | 2.44 |  | MIC [1]: 0.08 µM (≈ 0.0277 µg/mL)
6 | CCNC(=O)c1sc(N2CCOCC2)cc1OCCc1ccccc1 [Compound 22, N-Ethyl-5-morpholino-3-(2-phenylethoxy)thiophene-2-carboxamide] | 56 µM | 50 | 1.7 (≈ 0.613 µg/mL) | 1.67 | 50 | 56 |  |  | 
7 | O=C(NCC(F)(F)F)c1sc(N2CCOCC2)cc1OCCc1ccccc1 [Compound 23, 5-Morpholino-3-phenethoxy-N-(2,2,2-trifluoroethyl)thiophene-2-carboxamide] |  | 30.19 | 3.4 (≈ 1.41 µg/mL) | 3.32 | 30 | > 100 | 3.11 | 67 (≈ 27.8 µg/mL) | 
8 | CCOC(=O)NC(=O)c1sc(N2CCOCC2)cc1OCCc1ccccc1 [Compound 26, Ethyl N-[5-Morpholino-3-(2-phenylethoxy)thiophene-2-carbonyl]carbamate] |  | 0.9584 | > 20 | > 20 | 1 | > 100 | 2.73 | 65.8 (≈ 26.6 µg/mL) | antitubercular whole cell activity (in words) [1]: inactive
9 | NC(=O)c1sc(N2CCCCC2)cc1OCCc1ccccc1 [Compound 28, 3-(2-Phenylethoxy)-5-(1-piperidyl)thiophene-2-carboxamide] |  | 42.23 | 8.9 (≈ 2.94 µg/mL) | 11 | 42 | > 100 | 3.04 | 78.5 (≈ 25.9 µg/mL) | 
10 | NC(=O)c1sc(N2CCOCC2=O)cc1OCCc1ccccc1 [Compound 29, 5-(3-Oxomorpholino)-3-phenethoxythiophene-2-carboxamide] |  | 6.629 | 15 (≈ 5.2 µg/mL) | 10 | 7 | > 100 |  | 79 (≈ 27.4 µg/mL) | drop in potency / activity [1]: > 10 fold
11 | CNC(=O)c1sc(N2CC3CC2CO3)cc1OCCc1ccccc1 (stereo not shown) [Compound 30, 5-(2-Oxa-5-azabicyclo[2.2.1]heptan-5-yl)-N-methyl-3-phenethoxythiophene-2-carboxamide] | 69.2 µM | 12.51 | 3.8 (≈ 1.36 µg/mL) | 3.64 | 13 | 72 |  |  | drop in potency / activity [1]: > 5 fold
12 | NC(=O)c1sc(-n2cnc3ccccc32)cc1OCCc1ccccc1 [Compound 33, 5-(Benzimidazol-1-yl)-3-(2-phenylethoxy)thiophene-2-carboxamide] |  | 28.23 | > 20 | > 20 | 28 | > 100 | 2.39 | 27.5 (≈ 9.99 µg/mL) | antitubercular whole cell activity (in words) [1]: inactive
13 | NC(=O)c1sc(-n2nccn2)cc1OCCc1ccccc1 [Compound 34, 3-(2-Phenylethoxy)-5-(triazol-2-yl)thiophene-2-carboxamide] |  | 30.46 | 2 (≈ 0.629 µg/mL) | 2.05 | 30 | > 100 | 2.41 | 78.5 (≈ 24.7 µg/mL) | 
14 | NC(=O)c1sc(N2CCOCC2)cc1OCCc1ccccc1F [Compound 38] | 83.2 µM |  | 3.4 (≈ 1.19 µg/mL) | 3.7 | 25 | 84 | 2.05 |  | CL mouse MEAN ([3]; female, CD1, mouse, pH 7.4): 25.22 mL/min/g
15 | NC(=O)c1sc(N2CCOCC2)cc1OCCc1cccc(F)c1 [Compound 39, 3-[2-(3-Fluorophenyl)ethoxy]-5-morpholinothiophene-2-carboxamide] |  | 17.63 | 0.43 (≈ 0.151 µg/mL) | 0.469 | 18 | > 100 | 2.05 | 219 (≈ 76.7 µg/mL) | MIC [1]: 0.53 µM (≈ 0.186 µg/mL)
16 | NC(=O)c1sc(N2CCOCC2)cc1OC1CCCc2ccccc21 (stereo not shown) [Compound 52, 5-Morpholino-3-tetralin-1-yloxy-thiophene-2-carboxamide] |  | 5.383 | > 20 |  | 5.4 | 56 | 2.22 |  | 
17 | NC(=O)c1sc(N2CCOCC2)cc1OC1CCc2ccccc21 (stereo not shown) [Compound 53, 3-Indan-1-yloxy-5-morpholinothiophene-2-carboxamide] |  | 1.393 | > 20 |  | 1.4 | > 100 | 1.15 |  | 
18 | NC(=O)c1ccc(N2CCOCC2)cc1OCCc1ccccc1 [Compound 54, 4-Morpholino-2-phenethoxybenzamide] |  | 12.21 | > 20 |  | 12 | > 100 | 2.11 |  | 
19 | NC(=O)c1cc(N2CCOCC2)ccc1OCCc1cccc(F)c1 [Compound 56, 2-[2-(3-Fluorophenyl)ethoxy]-5-morpholino-benzamide] |  | 6.406 | 2.8 (≈ 0.964 µg/mL) |  | 6.4 | > 100 |  |  | P-glycoprotein (P-gp) efflux (in words) ([7]; MDCK-MDR1): no likely P-glycoprotein (P-gp) efflux issues; permeability (in words) ([7]; MDCK-MDR1): good permeability; P-gp Efflux B→ A/A → B ([7]; dog, MDCK): 0.7; Papp A→B [8]: 51 ×10⁻⁶ cm/s; Papp B→A [8]: 37 ×10⁻⁶ cm/s
20 | NC(=O)c1nc(N2CCOCC2)ccc1OCCc1ccccc1 [Compound 57, 6-Morpholino-3-(2-phenylethoxy)pyridine-2-carboxamide] |  | 2.315 | 6.9 (≈ 2.26 µg/mL) |  | 2.3 | > 100 | 1.61 |  | 
21 | COCCc1ccc(OCC(O)CNC(C)C)cc1 (stereo not shown) [Metoprolol, reference compound] |  |  |  |  |  |  |  |  | Papp A→B [8]: 55 ×10⁻⁶ cm/s; Papp B→A [8]: 40 ×10⁻⁶ cm/s
22 | C=C[C@H]1C[N@@]2CC[C@H]1C[C@@H]2[C@@H](O)c1ccnc2ccc(OC)cc12 [Quinidine, reference compound] |  |  |  |  |  |  |  |  | Papp B→A [8]: 89 ×10⁻⁶ cm/s
